Article PMC10178204, “Peptaibol Analogs Show Potent Antibacterial Activity against Multidrug Resistant Opportunistic Pathogens” (International Journal of Molecular Sciences, 2023)
Converted amounts (≈) assume the structure as drawn. “And” between values parts separate entries of the source, which are not always exact repeats. Identical values can stand only once. Non-standard residues stand in square brackets, D forms with d. Residues, ends and D or L forms follow the SMILES beside them. *: point of attachment. Leu(ol) = CC(C)C[C@H](N)CO; Octanoyl = CCCCCCCC(=O)*; Aib = CC(C)(N)C(=O)O

Assays:
[1] = system: Acinetobacter baumannii ATCC 17978
Description: (§1) The antibacterial activity of the peptides was initially assessed on a panel of representative Gram-positive and Gram-negative organisms of high clinical relevance and commonly responsible for bacterial infections in both animals and humans. Bacillus subtilis ATCC 6633 (Bsu) was also included as a rod-shaped model Gram-positive organism. This first panel comprised: Enterococcus faecalis ATCC 29212 (Efa); Streptococcus pyogenes ATCC 12344 (Spy); and Staphylococcus aureus ATCC 25923 (Sau); Gram-negative: Escherichia coli CCUGT (Eco), Klebsiella pneumoniae ATCC 13833 (Kpn), Acinetobacter baumannii ATCC 17978 (Aba), and Pseudomonas aeruginosa ATCC 27853 (Pae) (Table 2). Both the minimum inhibitory concentration (MIC, Table 2) and the minimum bactericidal concentration (MBC, Table S1, Supporting Material) were determined.
(§2) The minimum inhibitory concentration (MIC) and the minimum bactericidal concentration (MBC) of the compounds were determined in triplicate using Mueller–Hinton broth (MHB). […] Therefore, we decided to dissolve all peptides in DMSO to a final concentration of 25 mg/mL, for consistency. The bacteria inoculum was 5 × 10^5 CFU/mL, as recommended by CLSI (Document M07-A10, 2015). […] Reference-type strains, including representatives of both Gram-positive bacteria (Bacillus subtilis ATCC 6633, Enterococcus faecalis ATCC 29212, Staphylococcus aureus ATCC 25923, the methicillin-resistant Staphylococcus aureus ATCC 43300 (MRSA), Streptococcus pyogenes ATCC 12344) and Gram-negative bacteria (Escherichia coli CCUGT, Klebsiella pneumoniae ATCC 13833, Pseudomonas aeruginosa ATCC 27853, and Acinetobacter baumannii ATCC 17978), were acquired from ATCC or CCUG culture collections. Other antibiotic-resistant clinical isolates were present in our collection at the University Teaching Hospital (Azienda Ospedaliero-Universitaria Senese ‘Santa Maria alle Scotte’) in Siena, Tuscany, Italy. Specifically, MDR carbapenem-hydrolyzing class D β-lactamase-producing Acinetobacter baumannii and metallo-β-lactamase-producing Pseudomonas aeruginosa were used in this study (Table 4).

[2] = system: Bacillus subtilis ATCC 6633; conditions: MHB, 5 × 10^5 CFU/mL, 18 h, 35 °C, triplicate
Description: as §1, §2

[3] = system: Enterococcus faecalis ATCC 29212; conditions: MHB, 5 × 10^5 CFU/mL, 18 h, 35 °C, triplicate
Description: as §1, §2

[4] = system: Escherichia coli CCUGT; conditions: MHB, 5 × 10^5 CFU/mL, 18 h, 35 °C, triplicate
Description: as §1, §2

[5] = system: Klebsiella pneumoniae ATCC 13833; conditions: MHB, 5 × 10^5 CFU/mL, 18 h, 35 °C, triplicate
Description: as §1, §2

[6] = system: Pseudomonas aeruginosa ATCC 27853; conditions: MHB, 5 × 10^5 CFU/mL, 18 h, 35 °C, triplicate
Description: as §1, §2

[7] = system: Staphylococcus aureus ATCC 25923; conditions: MHB, 5 × 10^5 CFU/mL, 18 h, 35 °C, triplicate
Description: as §1, §2

[8] = system: Streptococcus pyogenes ATCC 12344; conditions: MHB, 5 × 10^5 CFU/mL, 18 h, 35 °C, triplicate
Description: as §1, §2

[9] = system: A. baumannii SI-12 (OXA-23); conditions: MHB, 5 × 10^5 CFU/mL, 18 h, 35 °C, triplicate
Description: as §2

[10] = system: A. baumannii SI-310 (OXA-24); conditions: colistin-resistant isolate; MHB, 5 × 10^5 CFU/mL, 18 h, 35 °C, triplicate
Description: as §2

[11] = system: A. baumannii SI-648 (OXA-23, OXA-51-like); conditions: MHB, 5 × 10^5 CFU/mL, 18 h, 35 °C, triplicate
Description: as §2

[12] = system: P. aeruginosa 101/1477 (IMP-1); conditions: MHB, 5 × 10^5 CFU/mL, 18 h, 35 °C, triplicate
Description: as §2

[13] = system: P. aeruginosa 506/99 (VIM-2); conditions: MHB, 5 × 10^5 CFU/mL, 18 h, 35 °C, triplicate
Description: as §2

[14] = system: P. aeruginosa VA-182/00 (VIM-2); conditions: MHB, 5 × 10^5 CFU/mL, 18 h, 35 °C, triplicate
Description: as §2

[15] = system: P. aeruginosa VR-143/97 (VIM-1); conditions: MHB, 5 × 10^5 CFU/mL, 18 h, 35 °C, triplicate
Description: as §2

[16] = system: S. aureus ATCC 43300 (MRSA); conditions: MHB, 5 × 10^5 CFU/mL, 18 h, 35 °C, triplicate
Description: as §2

[17] = system: blood agar plate (Columbia CNA Agar); assay: Hemolysis on blood agar plate; conditions: 35 ± 2 °C, 24 h; for Hemolysis (class): 50 μg peptide (2 μL of 25 mg/mL in DMSO) spotted on blood agar, visual, triplicate
Description: Hemolysis zones were visually determined and measured. […] For two additional peptides (6 and 15), only a small hemolysis zone (diameter 4–5 mm) was visible, as compared to that of the positive control (Triton X-100, 13 mm).
Briefly, 2 μL of each peptide solution in DMSO (25 mg/mL), corresponding to 50 μg, was spotted on the surface of a blood agar plate (Columbia CNA Agar, Becton Dickinson Italia S.p.A., Florence, Italy). The plate was then incubated at 35 ± 2 °C for 24 h and visually inspected for the presence of hemolysis zones (see Figure S13, Supplementary Material). The experiment was performed in triplicate. Table 2 reports the average value of the diameter of hemolysis zones measured in each individual experiment. Triton X-100 was used as a positive control (diameter of the hemolysis zone: 13 mm), while DMSO was used as a negative control.
Figure S13. Implementation of the hemolysis test as described in Bechlars et al.. After spotting
2 µL (50 µg) of each compound at a random location on the blood agar plate and incubation at 35 ±
2 °C for 24 h, the plates were manually inspected for the presence of hemolysis zones. Triton X-100
and DMSO were used as the positive and negative controls, respectively. Results were interpreted
(1 picture or pasted object on this page, not shown here)

[18] = MHB, 5 × 10^5 CFU/mL, 18 h, 35 °C, triplicate

Compound | MIC Aba [1, 18] [µg/mL] | MBC Bsu [2] [µg/mL] | MIC Bsu [2] [µg/mL] | MBC Efa [3] [µg/mL] | MIC Efa [3] [µg/mL] | MIC Eco [4] [µg/mL] | MIC Kpn [5] [µg/mL] | MIC Pae [6] [µg/mL] | MBC Sau [7] [µg/mL] | MIC Sau [7] [µg/mL] | MBC Spy [8] [µg/mL] | MIC Spy [8] [µg/mL] | MBC S. aureus ATCC 43300 (MRSA) [16] [µg/mL] | MIC S. aureus ATCC 43300 (MRSA) [16] [µg/mL] | Hemolysis (class) [17] | other results
1-Oct-Aib-Gly-Leu-Aib-Lys-Lys-Leu-Aib-Lys-Ile-Leu-NH2 [Peptide 5b] | 4 | 16 | 2 | 16 | 2 | 32 | 32 | 16 | 32 | 8 | 32 | 2 | 2 | 2 |  | MBC Aba [1, 18]: 32 µg/mL; MIC against A. baumannii, in molar units ([1]; corresponding to 2 and 8 μg/mL): 1.8 to 7.2 µM; MBC Eco [4]: 128 µg/mL; MBC Kpn [5]: 128 µg/mL; MBC Pae [6]: 128 µg/mL; MBC A. baumannii SI-12 (OXA-23) [9]: 8 µg/mL; MIC A. baumannii SI-12 (OXA-23) [9]: 4 µg/mL; MBC A. baumannii SI-310 (OXA-24) [10]: 4 µg/mL; MIC A. baumannii SI-310 (OXA-24) [10]: 2 µg/mL; MBC A. baumannii SI-648 (OXA-23, OXA-51-like) [11]: 4 µg/mL; MIC A. baumannii SI-648 (OXA-23, OXA-51-like) [11]: 4 μg/mL and 4/4 μg/mL; MBC P. aeruginosa 101/1477 (IMP-1) [12]: 8 µg/mL; MIC P. aeruginosa 101/1477 (IMP-1) [12]: 8 µg/mL; MBC P. aeruginosa 506/99 (VIM-2) [13]: 32 µg/mL; MIC P. aeruginosa 506/99 (VIM-2) [13]: 8 µg/mL; MBC P. aeruginosa VA-182/00 (VIM-2) [14]: 32 µg/mL; MIC P. aeruginosa VA-182/00 (VIM-2) [14]: 8 µg/mL; MBC P. aeruginosa VR-143/97 (VIM-1) [15]: 32 µg/mL; MIC P. aeruginosa VR-143/97 (VIM-1) [15]: 16 µg/mL and 8 µg/mL
CCCCCCCC(=O)NC(C)(C)C(=O)NCC(=O)N[C@@H](CC(C)C)C(=O)NC(C)(C)C(=O)N[C@@H](CCCCN)C(=O)NC(C)(C)C(=O)N[C@@H](CC(C)C)C(=O)NC(C)(C)C(=O)NCC(=O)N[C@H](C(=O)N[C@@H](CC(C)C)C(N)=O)[C@@H](C)CC [Peptide 6b, 1-Oct-Aib-Gly-Leu-Aib-Lys-Aib-Leu-Aib-Gly-Ile-Leu-NH2] (Octanoyl-[Aib]GL[Aib]K[Aib]L[Aib]GIL-NH2) | > 128 | 128 (≈ 109 µM) | 128 (≈ 109 µM) | 128 (≈ 109 µM) | 128 (≈ 109 µM) | > 128 | > 128 | > 128 | 128 (≈ 109 µM) | 128 (≈ 109 µM) | 32 (≈ 27.2 µM) | 8 (≈ 6.79 µM) |  |  | - | 
CCCCCCCC(=O)NC(C)(C)C(=O)NCC(=O)N[C@@H](CC(C)C)C(=O)NC(C)(C)C(=O)NCC(=O)NCC(=O)N[C@@H](CC(C)C)C(=O)NC(C)(C)C(=O)NCC(=O)N[C@H](C(=O)N[C@H](CO)CC(C)C)[C@@H](C)CC [Peptide 0, Trichogin GA IV, reference compound] (Octanoyl-[Aib]GL[Aib]GGL[Aib]GI[Leu(ol)]) | > 128 | 32 (≈ 30 µM) | 16 (≈ 15 µM) | 32 (≈ 30 µM) | 16 (≈ 15 µM) | > 128 | > 128 | > 128 |  | > 128 | 16 (≈ 15 µM) | 16 (≈ 15 µM) |  |  | - | 
CCCCCCCC(=O)NC(C)(C)C(=O)NCC(=O)N[C@@H](CC(C)C)C(=O)NC(C)(C)C(=O)N[C@@H](CCCCN)C(=O)NC(C)(C)C(=O)N[C@@H](CC(C)C)C(=O)NC(C)(C)C(=O)NCC(=O)N[C@H](C(=O)N[C@H](CO)CC(C)C)[C@@H](C)CC [Peptide 6, 1-Oct-Aib-Gly-Leu-Aib-Lys-Aib-Leu-Aib-Gly-Ile-Lol] (Octanoyl-[Aib]GL[Aib]K[Aib]L[Aib]GI[Leu(ol)]) | > 128 | 16 (≈ 13.7 µM) | 8 (≈ 6.86 µM) | 8 (≈ 6.86 µM) | 8 (≈ 6.86 µM) | > 128 | > 128 | > 128 | 16 (≈ 13.7 µM) | 8 (≈ 6.86 µM) | 8 (≈ 6.86 µM) | 8 (≈ 6.86 µM) | 8 (≈ 6.86 µM) | 4 (≈ 3.43 µM) | + | Hemolysis (d, diameter of hemolysis zone) ([17]; 50 μg spotted on blood agar, average of triplicate): 4 mm
CCCCCCCC(=O)NC(C)(C)C(=O)NCC(=O)N[C@@H](CC(C)C)C(=O)N[C@@H](CC(C)C)C(=O)NCC(=O)NCC(=O)N[C@@H](CC(C)C)C(=O)NC(C)(C)C(=O)NCC(=O)N[C@H](C(=O)N[C@@H](CC(C)C)C(N)=O)[C@@H](C)CC [Peptide 3, 1-Oct-Aib-Gly-Leu-Leu-Gly-Gly-Leu-Aib-Gly-Ile-Leu-NH2] (Octanoyl-[Aib]GLLGGL[Aib]GIL-NH2) | > 128 |  | > 128 |  | > 128 | > 128 | > 128 | > 128 |  | > 128 |  | > 128 |  |  | - | Hemolytic activity (in words) ([17]; 50 μg spotted on blood agar): no hemolysis detected
